These results are taken from US20260199214A1, “Personal Care Compositions And Methods For The Same” (Colgate-Palmolive Company, priority 2019, published 2026).

The subject of this assay is neonatal human epidermal keratinocytes (HEKn). The assay is described as follows: Intracellular ROS by fluorescence microscopy in keratinocytes exposed to urban dust, with niacinamide and/or FSO (Example 2). The class given is cell-based. The conditions noted are these: HEKn cells, 200 μg/mL UD, about one hour exposure; niacinamide/FSO concentration per sample. How it is done:
An in vitro study was conducted to analyze the skin protecting benefits of varying concentrations of niacinamide and/or FSO. Particularly, an in vitro study was conducted to analyze the efficacy of varying concentrations of niacinamide and/or FSO in reducing and/or preventing ROS in and on the skin.
To conduct the study, neonatal human epidermal keratinocytes (HEKn) were grown in standard well plates having glass bottoms coated with collagen I. The HEKn were cultured in EpiLife™ media supplemented with human keratinocyte growth supplements (HKGS), both of which are commercially available from ThermoFisher Scientific of Waltham, MA. Stock solutions of FSO, niacinamide, and urban dust (UD) were prepared for the treatment of the keratinocytes. It should be appreciated that the UD is representative of particulate matter (PM) pollution.
The presence or amount of intracellular reactive oxygen species (ROS) was measured using fluorescence microscopy. […] After exposure to the oxidative stress detection reagent and the FSO, niacinamide, and/or UD, the keratinocytes were washed twice with a wash buffer and imaged via fluorescence in the wash buffer. Live adherent cells were imaged using GFP excitation/emission filters, and the ROS levels were quantified from raw images using ImageJ software.

Regarding `NC(=O)c1cccnc1` [Sample 13, niacinamide], the “ROS Levels (%) Relative to UD Alone” value is on record as −10.79%.
As for `NC(=O)c1cccnc1` [Sample 14, niacinamide], the figure is −3.89%.
